Reference: the NIST ThermoML archive (doi:10.1016/j.jct.2016.10.033)

Assay: xn = mol fraction of the nth substance listed
Conditions: 103 kPa, Liquid, Vibrating tube method

CO[Si](C)(C)OC [dimethoxydimethylsilane] + CO[Si](C)(OC)c1ccccc1
mass density [kg/m3]
Conditions	298.15 K	303.15 K	308.15 K	313.15 K	318.15 K
x2 = 0	857.9	852.05	846.16	840.22	834.24
x2 = 0.0501	867.91	862.2	856.41	850.61	844.75
x2 = 0.1001	877.51	871.89	866.22	860.51	854.76
x2 = 0.15	886.69	881.2	875.64	870.06	864.46
x2 = 0.2	895.55	890.16	884.71	879.29	873.78
x2 = 0.25	904.02	898.68	893.28	887.86	882.41
x2 = 0.2999	912.17	906.9	901.56	896.2	890.82
x2 = 0.3499	920.17	914.94	909.7	904.52	899.24
x2 = 0.4001	927.65	922.49	917.31	912.1	906.86
x2 = 0.4501	934.96	929.92	924.83	919.75	914.64
x2 = 0.5001	942	936.98	931.93	926.87	921.78
x2 = 0.55	948.79	943.85	938.85	933.86	928.85
x2 = 0.6	955.36	950.46	945.52	940.57	935.6
x2 = 0.6499	961.69	956.82	951.89	946.97	942.03
x2 = 0.6999	967.83	962.98	958.11	953.22	948.33
x2 = 0.75	973.78	968.97	964.15	959.31	954.48
x2 = 0.7997	979.5	974.72	969.93	965.13	960.32
x2 = 0.8499	985.08	980.34	975.58	970.81	966.02
x2 = 0.8999	990.48	985.77	981.05	976.33	971.59
x2 = 0.95	995.72	991.04	986.35	981.66	976.95

C=C[Si](OC)(OC)OC [trimethoxy(vinyl)silane] + CO[Si](C)(OC)c1ccccc1
mass density [kg/m3]
Conditions	298.15 K	303.15 K	308.15 K	313.15 K	318.15 K
x2 = 0	965.69	960.02	954.26	948.47	942.63
x2 = 0.05	968.08	962.41	956.71	950.99	945.24
x2 = 0.1	970.32	964.72	959.1	953.45	947.77
x2 = 0.1499	972.48	966.94	961.39	955.8	950.2
x2 = 0.2	974.57	969.11	963.63	958.1	952.57
x2 = 0.2501	976.61	971.22	965.8	960.36	954.9
x2 = 0.2999	978.59	973.25	967.91	962.52	957.14
x2 = 0.35	980.49	975.22	969.93	964.61	959.27
x2 = 0.4001	982.35	977.14	971.9	966.65	961.37
x2 = 0.4501	984.15	978.99	973.81	968.61	963.4
x2 = 0.5	985.89	980.79	975.67	970.52	965.37
x2 = 0.5499	987.58	982.53	977.46	972.37	967.27
x2 = 0.6	989.22	984.22	979.2	974.17	969.12
x2 = 0.6499	990.82	985.86	980.89	975.91	970.93
x2 = 0.7	992.37	987.46	982.54	977.6	972.65
x2 = 0.75	993.89	989.02	984.15	979.26	974.36
x2 = 0.8001	995.35	990.53	985.7	980.86	976.01
x2 = 0.8498	996.76	991.99	987.21	982.41	977.61
x2 = 0.8999	998.15	993.42	988.68	983.93	979.18
x2 = 0.9499	999.49	994.81	990.11	985.41	980.69
